The results in this text go back to patent publication US9499495B2, “Quinazolines and azaquinazolines as dual inhibitors of RAS/RAF/MEK/ERK and PI3K/AKT/PTEN/mTOR pathways” (Asana Biosciences, LLC, priority 2013, dated 2016).

The target in one assay is T1, B-RAFV600E (Homo sapiens, UniProt P15056, V600E).
T1 construct: purchased Millipore, USA 14-557
Kind of assay: B-RAFV600E radiometric assay. Format: biochemical. As to conditions: read-out: Kinase assay B-Raf. In outline:
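B-RAFV600E was preincubated 45 min at rt with compound in 1% DMSO. MEK-K97M (0.5 μg), 5 μM final cold ATP and [γ-32P]ATP were then added for 2 h at rt. Phosphorylated MEK was captured on P81 paper and scintillation-counted; IC50 came from a sigmoidal dose-response fit.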

A further assay deals with T2, PI3Kα (Homo sapiens, UniProt P42336).
T2 construct: made in house; host or cells: SF9 cells
T2 sequence (P42336 whole entry, species assumed): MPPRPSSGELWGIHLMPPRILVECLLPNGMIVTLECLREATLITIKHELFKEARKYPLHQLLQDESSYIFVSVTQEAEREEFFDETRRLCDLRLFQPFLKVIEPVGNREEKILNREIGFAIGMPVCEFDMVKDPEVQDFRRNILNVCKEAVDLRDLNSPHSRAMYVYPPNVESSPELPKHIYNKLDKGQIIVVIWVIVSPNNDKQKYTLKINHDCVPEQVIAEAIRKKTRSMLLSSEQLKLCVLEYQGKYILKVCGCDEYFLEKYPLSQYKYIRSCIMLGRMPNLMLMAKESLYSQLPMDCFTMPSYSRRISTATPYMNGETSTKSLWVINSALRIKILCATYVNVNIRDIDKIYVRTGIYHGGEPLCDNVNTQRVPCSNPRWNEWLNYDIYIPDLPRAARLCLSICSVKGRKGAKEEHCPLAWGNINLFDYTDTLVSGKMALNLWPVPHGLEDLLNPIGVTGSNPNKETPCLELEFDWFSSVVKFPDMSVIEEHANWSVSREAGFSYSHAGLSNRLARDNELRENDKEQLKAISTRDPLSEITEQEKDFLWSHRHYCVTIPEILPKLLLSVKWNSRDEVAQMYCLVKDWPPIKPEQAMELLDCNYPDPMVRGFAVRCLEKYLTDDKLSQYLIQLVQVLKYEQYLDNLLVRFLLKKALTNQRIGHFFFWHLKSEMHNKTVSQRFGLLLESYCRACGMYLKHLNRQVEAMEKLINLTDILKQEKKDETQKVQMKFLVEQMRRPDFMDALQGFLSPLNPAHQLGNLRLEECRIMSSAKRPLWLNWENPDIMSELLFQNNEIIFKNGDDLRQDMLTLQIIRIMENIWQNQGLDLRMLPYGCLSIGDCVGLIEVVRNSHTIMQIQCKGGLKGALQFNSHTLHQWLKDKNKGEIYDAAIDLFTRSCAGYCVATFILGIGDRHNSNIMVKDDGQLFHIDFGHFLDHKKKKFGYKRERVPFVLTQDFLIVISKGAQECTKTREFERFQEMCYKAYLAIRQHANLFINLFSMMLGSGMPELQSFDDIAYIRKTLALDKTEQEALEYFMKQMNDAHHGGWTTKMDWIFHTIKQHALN
T2 sequence (P27986 whole entry partner, species assumed): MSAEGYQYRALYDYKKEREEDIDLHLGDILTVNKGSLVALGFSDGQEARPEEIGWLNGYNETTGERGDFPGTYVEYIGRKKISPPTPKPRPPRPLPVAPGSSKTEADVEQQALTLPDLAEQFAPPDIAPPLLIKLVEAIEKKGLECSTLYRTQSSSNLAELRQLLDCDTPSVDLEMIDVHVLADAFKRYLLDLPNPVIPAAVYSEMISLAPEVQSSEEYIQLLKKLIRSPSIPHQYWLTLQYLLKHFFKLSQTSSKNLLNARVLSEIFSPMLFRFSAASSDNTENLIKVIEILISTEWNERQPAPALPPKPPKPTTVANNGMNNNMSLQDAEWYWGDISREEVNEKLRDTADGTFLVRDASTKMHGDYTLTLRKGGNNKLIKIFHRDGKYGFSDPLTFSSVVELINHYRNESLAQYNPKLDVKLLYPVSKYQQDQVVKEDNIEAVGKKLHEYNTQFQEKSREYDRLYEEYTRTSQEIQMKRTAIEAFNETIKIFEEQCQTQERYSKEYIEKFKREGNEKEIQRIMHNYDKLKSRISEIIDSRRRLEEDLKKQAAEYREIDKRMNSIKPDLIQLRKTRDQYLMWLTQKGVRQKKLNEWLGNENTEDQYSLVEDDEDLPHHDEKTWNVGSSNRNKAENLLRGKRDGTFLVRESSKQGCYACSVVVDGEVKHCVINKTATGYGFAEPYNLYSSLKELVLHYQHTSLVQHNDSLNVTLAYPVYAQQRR
Kind of assay: PI3 Kinase alpha TR-FRET assay. Format: biochemical. Here is the method: Compound inhibition for PI3Kα was determined in a homogeneous TR-FRET assay using a PI3Kα assay kit (Millipore, US, Catalog #33-016). The PI3 kinase catalyzes phosphorylation of […] (PIP2) to phosphatidylinositol 3,4,5-trisphosphate (PIP3) in the presence of ATP and Mg^2+. The PIP3 product is detected by displacement of biotin-PIP3 from an energy transfer complex consisting of Europium labeled anti-GST monoclonal antibody, a GST-tagged pleckstrin homology (PH) domain, biotinylated PIP3 and Streptavidin-Allophycocyanin (APC). Excitation of Europium in the complex results in an energy transfer to the APC and a fluorescence emission at 665 nm.
Compounds tested were dissolved in DMSO and directly distributed into 384-well plates at a volume of 0.5 μL. P110/P85a/PIP2 mixture (14.5 μL) was added to compound wells and incubated for 30 min at rt […]. P110/P85a was expressed in SF9 cells and purified in-house. 5 ng P110/P85a was used in the assay. The kinase reaction was started by the addition of ATP. The assay concentrations of both PIP2 and ATP were 40 μM. The reaction mixture was incubated for 30 min and was terminated by the addition of stop mix and detection mix. Fluorescence was measured at 615 and 665 nm upon excitation at 340 nm in a Victor V5 fluorometer (Perkin Elmer, US). The fluorescence emission ratio at 665 to 615 nm, proportional to the kinase activity, was plotted against the compound concentration to generate dose-response curves and IC50 values were determined.
A general note: In TR-FRET formats the signal depends on donor and acceptor labels being close together.

Another assay concerns pERK in A375 cells. Kind of assay: In Cell Western (ICW) assay, pERK in A375 cells. As to conditions: Homo sapiens, A-375, 3 h treatment. Format: cell-based. In outline: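 RKO or A375 cells were exposed to compounds for 3 h at 37 °C, then fixed and stained in-cell with antibodies to pERK1/2 (T202/Y204), pS6RP or pAKT T308, followed by a Eu-labelled secondary. Time-resolved fluorescence (340/615 nm) was normalized to Hoechst, and IC50 values were fitted sigmoidally against DMSO as 0% inhibition.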

The next assay deals with A375 cells. Kind of assay: XTT assay for cell viability, A375 cells. Format: cell-based. The note with it: Homo sapiens, A-375, 72 h. The method, boiled down: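 RKO and A375 cells seeded at 1000-2000/well overnight, then exposed to compound for 72 h at 37° C., 5% CO2. XTT (1 mg/ml)/PMS (25 μM) added for 2-3 h; absorbance at 450 nm. Growth relative to DMSO control (100%); GI50 from sigmoidal dose-response fit.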
For orientation: Tetrazolium assays rely on reduction of a dye to a coloured formazan, in cell work by metabolically active cells.

A further assay concerns the target T3, mTOR kinase (Homo sapiens, UniProt P42345).
T3 construct: purchased Millipore, US
Kind of assay: mTOR kinase TR-FRET assay. Format: biochemical. The method, boiled down: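 TR-FRET with ULight-p70 S6K (Thr 389) peptide (50 nM) and 20 μM ATP in 50 mM HEPES pH 7.5, 1 mM EGTA, 3 mM MnCl2; compound pre-incubated with enzyme before substrate addition, reaction at rt, EDTA-stopped. Eu anti-phospho antibody read 665/615 nm; IC50 from sigmoidal dose-response fit.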

The subject of a further assay is RKO cells. Kind of assay: XTT assay for cell viability, RKO cells. Format: cell-based. As to conditions: Homo sapiens, 72 h. The procedure: Cell lines (A375 ATCC No. CRL-1619, A2058 ATCC No. CRL-11147 and RKO ATCC No. CRL-2577, American Type Culture Collection (ATCC), Manassas Va.) once attaining ˜80% confluency were trypsinized, centrifuged and resuspended in fresh media. Cells (1000-2000/per well) were seeded in 96-well plate and incubated over-night at 37° C. in a 5% CO2 incubator. Compound dilutions were prepared in 100% DMSO followed by dilutions in the respective media. The cells were treated with NCEs for 72 h at 37° C. in 5% CO2 incubator. After 72 h, freshly prepared XTT (1 mg/ml)/PMS (25 μM) solution was added, incubated for 2 to 3 h at 37° C. and the absorbance was measured at 450 nm using an ELISA plate reader. Keeping DMSO control as 100%, the effect of the compound to inhibit the cell proliferation was calculated and the GI50 values were determined using sigmoidal dose response curve fit in GraphPad Prism® v5 software.

T3 sequence (P42345 1362-2549 limits assumed): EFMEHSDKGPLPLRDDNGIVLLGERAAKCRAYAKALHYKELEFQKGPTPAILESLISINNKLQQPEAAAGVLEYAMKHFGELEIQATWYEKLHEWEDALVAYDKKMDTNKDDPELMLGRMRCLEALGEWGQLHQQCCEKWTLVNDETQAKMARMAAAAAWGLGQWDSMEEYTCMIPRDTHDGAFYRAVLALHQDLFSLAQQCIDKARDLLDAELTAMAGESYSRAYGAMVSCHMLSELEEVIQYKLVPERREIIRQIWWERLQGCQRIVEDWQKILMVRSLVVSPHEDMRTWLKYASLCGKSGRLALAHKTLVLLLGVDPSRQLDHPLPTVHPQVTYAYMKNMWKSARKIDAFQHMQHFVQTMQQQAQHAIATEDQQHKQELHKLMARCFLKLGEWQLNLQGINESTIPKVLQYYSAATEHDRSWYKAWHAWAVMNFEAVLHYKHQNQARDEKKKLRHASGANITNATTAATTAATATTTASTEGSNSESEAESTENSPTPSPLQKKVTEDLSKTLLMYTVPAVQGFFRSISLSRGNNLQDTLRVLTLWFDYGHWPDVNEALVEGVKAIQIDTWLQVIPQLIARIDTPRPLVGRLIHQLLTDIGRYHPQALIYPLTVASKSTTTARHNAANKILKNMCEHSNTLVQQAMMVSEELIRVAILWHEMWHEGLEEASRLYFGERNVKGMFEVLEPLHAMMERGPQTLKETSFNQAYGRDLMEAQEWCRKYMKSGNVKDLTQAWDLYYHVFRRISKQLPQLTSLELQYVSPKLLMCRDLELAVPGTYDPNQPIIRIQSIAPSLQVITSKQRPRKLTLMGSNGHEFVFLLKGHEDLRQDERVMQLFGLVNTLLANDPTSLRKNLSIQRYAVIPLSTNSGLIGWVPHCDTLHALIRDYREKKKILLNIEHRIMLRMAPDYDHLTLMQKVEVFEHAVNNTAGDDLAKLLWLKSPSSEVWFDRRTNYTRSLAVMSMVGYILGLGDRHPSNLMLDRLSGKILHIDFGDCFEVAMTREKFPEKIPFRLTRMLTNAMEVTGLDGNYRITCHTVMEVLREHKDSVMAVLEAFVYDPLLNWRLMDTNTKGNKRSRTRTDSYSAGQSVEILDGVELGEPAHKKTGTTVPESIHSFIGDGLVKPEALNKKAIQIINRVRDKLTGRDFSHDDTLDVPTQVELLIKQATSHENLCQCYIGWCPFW
T1 sequence (P15056 416-766 V600E limits assumed): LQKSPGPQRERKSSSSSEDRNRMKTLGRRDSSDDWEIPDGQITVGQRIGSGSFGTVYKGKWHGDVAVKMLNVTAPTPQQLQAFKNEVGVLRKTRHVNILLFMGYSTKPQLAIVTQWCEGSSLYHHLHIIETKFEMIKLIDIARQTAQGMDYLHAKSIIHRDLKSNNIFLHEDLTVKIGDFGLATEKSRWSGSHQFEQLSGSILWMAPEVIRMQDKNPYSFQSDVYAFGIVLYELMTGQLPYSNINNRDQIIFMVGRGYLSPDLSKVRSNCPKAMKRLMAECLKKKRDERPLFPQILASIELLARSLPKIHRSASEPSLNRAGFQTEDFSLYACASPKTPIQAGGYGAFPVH

In the case of `CCCS(=O)(=O)Nc1cccc(-c2cc(OC)c3nc(-c4cccc5[nH]ncc45)nc(N4CCOCC4)c3c2)c1F` [Example 2, N-(3-(2-(1H-indazol-4-yl)-8-methoxy-4-morpholinoquinazolin-6-yl)-2-fluorophenyl) propane-1-sulfonamide], the IC50 on B-RAFV600E was in the range of 1 to 100 nM; at PI3Kα it was 100 to 1000 nM; in the assay with pERK in A375 cells it was 100 to 1000 nM; with A375 cells, 100 to 1000 nM.

`CCCS(=O)(=O)Nc1cccc(-c2cc(OC)c3nc(-c4ccc(NCCN)nc4)nc(N4CCOCC4)c3c2)c1F` [Example 3]: the IC50 on B-RAFV600E fell in the range of 1 to 100 nM; at PI3Kα it was 100 to 1000 nM; in the assay on pERK in A375 cells it was 1 to 100 nM; with A375 cells, 1000 to 10000 nM.

Consider `CCCS(=O)(=O)Nc1cccc(-c2cc(OC)c3nc(-c4cnc(N)c(C)c4)nc(N4CCOCC4)c3c2)c1F` [Example 26, N-(3-(2-(6-amino-5-methylpyridin-3-yl)-8-methoxy-4-morpholinoquinazolin-6-yl)-2-fluorophenyl)propane-1-sulfonamide], for which the IC50 on B-RAFV600E, at PI3Kα, in the assay on pERK in A375 cells and in the assay with A375 cells was 100 to 1000 nM throughout.

`CNc1ccc(-c2nc(N3CCOCC3)c3cc(-c4cccc(NS(=O)(=O)CCCF)c4F)cc(OC)c3n2)cn1` [Example 50, 3-fluoro-N-(2-fluoro-3-(8-methoxy-2-(6-(methylamino)pyridin-3-yl)-4-morpholinoquinazolin-6-yl)phenyl)propane-1-sulfonamide]: the IC50 was 1 to 100 nM on B-RAFV600E; 1 to 100 nM against mTOR kinase; 1 to 100 nM in the assay on pERK in A375 cells; 1 to 100 nM in the assay with A375 cells; 100 to 1000 nM in the assay with RKO cells.

In the case of `CNc1ncc(-c2nc(N3CCOCC3)c3cc(-c4cccc(NS(=O)(=O)CCCF)c4F)cc(OC)c3n2)cn1` [Example 51, 3-fluoro-N-(2-fluoro-3-(8-methoxy-2-(2-(methylamino)pyrimidin-5-yl)-4-morphoIinoquinazolin-6-yl)phenyl)propane-1-sulfonamide], the IC50 on B-RAFV600E lay in the range of 1 to 100 nM; against mTOR kinase, 1 to 100 nM; with pERK in A375 cells, 1 to 100 nM; in the assay on A375 cells it was 1 to 100 nM; with RKO cells, 100 to 1000 nM.

For the compound `Nc1ccc(-c2nc(N3CCOCC3)c3cc(-c4cccc(NS(=O)(=O)CCCF)c4F)cc(OC4CCCC4)c3n2)cn1` [Example 53, N-(3-(2-(6-aminopyridin-3-yl)-8-(cyclopentyloxy)-4-morpholinoquinazolin-6-yl)-2-fluorophenyl)-3-fluoropropane-1-sulfonamide], the IC50 at B-RAFV600E was in the range of 1 to 100 nM; on mTOR kinase, 1 to 100 nM; in the assay with pERK in A375 cells, 1 to 100 nM; in the assay with A375 cells, 1 to 100 nM; with RKO cells, 100 to 1000 nM.

As to `C[C@@H]1COCCN1c1nc(-c2ccc(N)nc2)nc2c(OC3CCCC3)cc(-c3cccc(NS(=O)(=O)CCCF)c3F)cc12` [Example 62, (R)-N-(3-(2-(6-aminopyridin-3-yl)-8-(cyclopentyloxy)-4-(3-methylmorpholino)quinazolin-6-yl)-2-fluorophenyl)-3-fluoropropane-1-sulfonamide], the IC50 on B-RAFV600E lay in the range of 1 to 100 nM; at mTOR kinase, 1 to 100 nM; in the assay on pERK in A375 cells it was 1 to 100 nM; in the assay with A375 cells it was 1 to 100 nM; with RKO cells it was 100 to 1000 nM.

As for `COc1cc(-c2c(F)ccc(NS(=O)(=O)CCCF)c2F)cc2c(N3CCOCC3)nc(-c3cccc4[nH]ncc34)nc12` [Example 81, N-(3-(2-(1H-indazol-4-yl)-8-methoxy-4-morpholinoquinazolin-6-yl)-2,4-difluorophenyl)-3-fluoropropane-1-sulfonamide], the IC50 on B-RAFV600E lay within 1 to 100 nM; on PI3Kα, 100 to 1000 nM; in the assay on pERK in A375 cells, 1 to 100 nM; with A375 cells, 100 to 1000 nM.

Take `O=S(=O)(CCCF)Nc1cccc(-c2ccc3nc(-c4cnc(NCCCO)nc4)nc(N4CCOCC4)c3n2)c1F` [Example 110, 3-fluoro-N-(2-fluoro-3-(2-(2-((3-hydroxypropyl)amino)pyrimidin-5-yl)-4-morpholinopyrido[3,2-d]pyrimidin-6-yl)phenyl)propane-1-sulfonamide]: the IC50 at B-RAFV600E was in the range of 1 to 100 nM; against PI3Kα it was 100 to 1000 nM; in the assay with pERK in A375 cells, 1 to 100 nM; in the assay with A375 cells it was 1000 to 10000 nM.

As to `Cc1cc(-c2cccc(NS(=O)(=O)CCCF)c2F)cc2c(N3CCOCC3)nc(-c3cccc4[nH]ncc34)nc12` [Example 118, N-(3-(2-(1H-indazol-4-yl)-8-methyl-4-morpholinoquinazolin-6-yl)-2-fluorophenyl)-3-fluoropropane-1-sulfonamide], the IC50 at B-RAFV600E lay in the range of 1 to 100 nM; on mTOR kinase, 100 to 1000 nM; with A375 cells it was 100 to 1000 nM; with RKO cells, 1000 to 10000 nM.

Turning to `C[C@H]1COCCN1c1nc(-c2ccc(N)nc2)nc2ccc(-c3cccc(NS(=O)(=O)CCCF)c3F)nc12` [Example 127, (S)-N-(3-(2-(6-aminopyridin-3-yl)-4-(3-methylmorpholino)pyrido[3,2-d]pyrimidin-6-yl)-2-fluorophenyl)-3-fluoropropane-1-sulfonamide], the IC50 on B-RAFV600E is 100 to 1000 nM; against PI3Kα it was 1 to 100 nM; on mTOR kinase it was 1 to 100 nM; with pERK in A375 cells, 100 to 1000 nM.

As to `C[C@H]1COCCN1c1nc(-c2cnc(N)nc2)nc2ccc(-c3cccc(NS(=O)(=O)CCCF)c3F)nc12` [Example 128, (S)-N-(3-(2-(2-aminopyrimidin-5-yl)-4-(3-methylrnorpholino)pyrido[3,2-d]pyrimidin-6-yl)-2-fluorophenyl)-3-fluoropropane-1-sulfonamide], the IC50 at B-RAFV600E lay within 1 to 100 nM; on PI3Kα it was 1 to 100 nM; at mTOR kinase, 100 to 1000 nM; in the assay on pERK in A375 cells, 100 to 1000 nM.

Take `Cc1cc(N)ncc1-c1nc(N2CCOC[C@@H]2C)c2nc(-c3cccc(NS(=O)(=O)CCCF)c3F)ccc2n1` [Example 130, (S)-N-(3-(2-(6-amino-4-methylpyridin-3-yl)-4-(3-methylmorpholino)pyrido[3,2-d]pyrimidin-6-yl)-2-fluorophenyl)-3-fluoropropane-1-sulfonamide]: the IC50 was in the range of 100 to 1000 nM on B-RAFV600E, 1 to 100 nM against PI3Kα, 100 to 1000 nM on mTOR kinase and 100 to 1000 nM in the assay on pERK in A375 cells.

For the compound `Cc1nc(N)ncc1-c1nc(N2CCOC[C@@H]2C)c2nc(-c3cccc(NS(=O)(=O)CCCF)c3F)ccc2n1` [Example 131, (S)-N-(3-(2-(2-amino-4-methylpyrimidin-5-yl)-4-(3-methylmorpholino)pyrido[3,2-d]pyrimidin-6-yl)-2-fluorophenyl)-3-fluoropropane-1-sulfonamide], the IC50 on B-RAFV600E fell in the range of 100 to 1000 nM; against PI3Kα, 1 to 100 nM; on mTOR kinase, 100 to 1000 nM; in the assay on pERK in A375 cells, 100 to 1000 nM.

In the case of `Cc1nc(N)ncc1-c1nc(N2CCOC[C@@H]2C)c2nc(-c3cccc(NS(=O)(=O)c4cc(F)ccc4F)c3F)ccc2n1` [Example 132, (S)-N-(3-(2-(2-amino-4-methylpyrimidin-5-yl)-4-(3-methylmorpholino)pyrido[3,2-d]pyrimidin-6-yl)-2-fluorophenyl)-2,5-difluorobenzenesulfonamide], the IC50 fell in the range of 1 to 100 nM on B-RAFV600E, 1 to 100 nM against PI3Kα, 100 to 1000 nM against mTOR kinase and 100 to 1000 nM in the assay with pERK in A375 cells.
